Assay results as given in patent publication US9040714B2 (MannKind Corporation, priority 2010, dated 2015).
pEC50, pIC50: −log10 of the molar value. Where two headings read alike, the source gives them in different places.

Columns and labels:
[1] = test system: IRE-1α-mediated XBP-1 splicing in human myeloma MM.1s cells; assay: Cellular EC50: endogenous XBP-1 splicing in myeloma cells by RT-PCR (DTT stress); type: cell-based; conditions: MM1.S, read-out: EC50_av
Experimental: Human myeloma MM.1s cells are incubated with a compound for 1.25 hours before stressing the cells with 2 mM dithiothreitol (DTT). After an additional 45 minutes (2 hours total) with compound and DTT, the cells are harvested with TRIZOL® (a mono-phasic solution of phenol and guanidine isothiocyanate), and total RNA is prepared as directed by the manufacturer (Invitrogen). Human XBP-1 is amplified by RT-PCR with the following primers, which flank the 26 base unconventional intron excised by IRE-1α:
RT-PCR of unstressed (U) cells then generates the upper band. When cells are stressed (S) with the endoplasmic reticulum (ER) stressing agent DTT, IRE-1α is activated due to accumulating unfolded protein and the resulting RT-PCR, product is 26 base pairs shorter.
Compounds which pass specificity assays are assayed for cellular EC50 using endogenous XBP-1 splicing in myeloma cells. XBP-1 is regulated through the excision of a 26 nucleotide intron from the XBP-1 mRNA by the highly specific endoribonuclease activity of IRE-1α. […] This splicing event is used to measure IRE-1α activity on XBP-1 mRNA in cells and tissues.
Briefly, compounds are incubated in the presence or absence of an ER stress agent (e.g., DTT), and the ratio of XBP-1u (unspliced) to XBP-1 s (spliced) is quantified by RT-PCR. The ED50 is determined as the 50% XBP-1s to total XPB-1 levels.

[2] = target: human IRE-1α (GST-IRE-1α) (Homo sapiens (Human), UniProt O75460); assay: IRE-1α assay in vitro: cleavage of Cy5/BHQ2-labelled mini-XBP-1 mRNA stem-loop substrate; type: biochemical; conditions: average IC50 for inhibition of IRE-1α
human IRE-1α (GST-IRE-1α), sequence (O75460 19-977): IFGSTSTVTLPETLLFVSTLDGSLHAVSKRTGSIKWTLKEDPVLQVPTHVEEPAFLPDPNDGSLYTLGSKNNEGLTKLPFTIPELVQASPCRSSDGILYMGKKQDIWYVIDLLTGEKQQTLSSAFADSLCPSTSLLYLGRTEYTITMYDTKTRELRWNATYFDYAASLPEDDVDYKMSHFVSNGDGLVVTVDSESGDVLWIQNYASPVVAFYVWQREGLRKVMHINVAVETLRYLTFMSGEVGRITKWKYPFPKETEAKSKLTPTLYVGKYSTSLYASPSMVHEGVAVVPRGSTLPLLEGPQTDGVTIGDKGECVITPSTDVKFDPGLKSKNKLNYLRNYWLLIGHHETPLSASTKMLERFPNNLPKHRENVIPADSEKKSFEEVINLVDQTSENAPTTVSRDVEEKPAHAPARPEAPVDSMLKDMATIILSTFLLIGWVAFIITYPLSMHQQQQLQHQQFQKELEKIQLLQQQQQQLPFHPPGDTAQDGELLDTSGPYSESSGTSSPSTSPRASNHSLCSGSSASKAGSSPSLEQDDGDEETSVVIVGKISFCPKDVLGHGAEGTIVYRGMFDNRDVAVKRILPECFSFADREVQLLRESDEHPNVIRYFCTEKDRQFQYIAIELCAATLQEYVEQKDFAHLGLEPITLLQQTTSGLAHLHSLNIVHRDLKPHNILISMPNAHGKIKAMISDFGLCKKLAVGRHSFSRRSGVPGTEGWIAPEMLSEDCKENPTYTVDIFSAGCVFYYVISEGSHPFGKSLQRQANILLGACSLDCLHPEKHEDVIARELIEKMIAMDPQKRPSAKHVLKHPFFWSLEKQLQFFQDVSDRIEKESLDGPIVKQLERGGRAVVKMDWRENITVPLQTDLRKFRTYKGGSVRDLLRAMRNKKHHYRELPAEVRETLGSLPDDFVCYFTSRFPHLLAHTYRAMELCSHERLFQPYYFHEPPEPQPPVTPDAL
Experimental: In some embodiments IRE-la inhibitor compounds form a complex with IRE-1α. […] Other substrates also can be used to detect cleavage. See US 2007/0105123.
A fusion protein comprising glutathione S transferase (GST) and human IRE-1α (GST-IRE-1α) obtained from a 500 ml baculovirus-infected insect cell culture can be used to measure IRE-1α activity in vitro.
Five μl of a reaction mixture comprising IX reaction buffer (5× reaction buffer is 100 mM Hepes pH 7.5, 250 mM KOAc, 2.5 mM MgCl2), 3 mM DTT, and 0.4% polyethylene glycol water is added to each well of 384 well plates. Twenty-five nanoliters of a 1 mM test compound solution are added to test wells. Three μl of a […] IRE-1α preparation are added to each test well and to positive control wells (final concentration 5.82 ng/well). Negative control wells contain only reaction mixture and test compound.
After spinning the plates at 1200 rpm for 30 seconds, 3 μl of an IRE-1α human mini-XBP-1 mRNA stem-loop substrate 5′-[…]-3′ (SEQ ID NO:1), labeled with the fluorescent dye Cy5 at the 5′ end and Black Hole Quencher 2 (BH2) at the 3′ end, are added to each well of a control plate. The plates are again spun at 1200 rpm for 30 seconds. Final concentrations for the assay are: 63 nM IRE-1α substrate, 5.82 ng IRE-1α protein, and 2.5 μM test compound.
The plates are covered with lids and incubated for one hour at 30° C. The plates are then transferred to an ACQUEST™ microplate reader. Data is analyzed using data analysis software, and the percent activity of IRE-1α is calculated.
IC50 for inhibition of IRE-1α of compounds identified in Table 1 was measured as described in EXAMPLE 35.

[3] = average cellular EC50, XBP-1 splicing in myeloma cells

Row | pEC50 [1, 3] | pIC50 [2] | SMILES | pEC50 [1]
1 | > 5.00 | > 7.00 | Cc1c(-c2cccc(C(=O)NCCN3CCOCC3)c2)c(=O)oc2c(C=O)c(O)ccc12 [Example 11] | –
2 | > 5.00 | > 7.00 | Cc1c(-c2ccc(C(=O)N3CCOCC3)cc2)c(=O)oc2c(C=O)c(O)ccc12 [Example 12] | –
3 | > 5.00 | > 7.00 | Cc1c(-c2ccc(N3CCN(C)CC3)nc2)c(=O)oc2c(C=O)c(O)ccc12 [Example 14] | –
4 | > 5.00 | > 7.00 | Cc1c(-c2ccc(N3CCN(C)CC3)cc2)c(=O)oc2c(C=O)c(O)c(F)cc12 [Example 24] | –
5 | < 5.00 | > 5.00 | O=Cc1c(O)ccc2c1CCN(Cc1ccccc1)C2 [Example 28] | –
6 | < 5.00 | > 7.00 | Cc1nc(N2CCc3c(ccc(O)c3C=O)C2)sc1C(=O)NC1CCNCC1 [Example 35] | –
7 | < 5.00 | > 6.00 | Cc1nc(N2CCc3c(ccc(O)c3C=O)C2)sc1C(=O)NC1CCN(C)CC1 [Example 36] | –
8 | < 5.00 | > 7.00 | Cc1nc(N2CCc3c(ccc(O)c3C=O)C2)sc1C(=O)NCCN1CCOCC1 [Example 37] | –
9 | < 5.00 | > 7.00 | CN1CCN(c2ncc(C(=O)N3CCc4c(ccc(O)c4C=O)C3)s2)CC1 [Example 38] | –
10 | > 5.00 | > 6.00 | CN1CCN(C(=O)c2ccc(-c3ccc4c(C=O)c(O)ccc4n3)cc2)CC1 [Example 41] | –
11 | > 5.00 | > 6.00 | CN1CCN(C(=O)c2cccc(-c3ccc4c(C=O)c(O)ccc4n3)c2)CC1 [Example 42] | –
12 | > 5.00 | > 6.00 | O=Cc1c(O)ccc2nc(-c3ccc(C(=O)N4CCOCC4)cc3)ccc12 [Example 44] | –
13 | > 5.00 | > 6.00 | O=Cc1c(O)ccc2nc(-c3ccc(C(=O)NCCN4CCOCC4)cc3)ccc12 [Example 45] | –
14 | > 5.00 | > 7.00 | CCOC(=O)c1cnc(-c2cc3ccc(O)c(C=O)c3oc2=O)s1 [Example 106] | –
15 | > 5.00 | > 7.00 | CN1CCN(C(=O)c2cnc(-c3cc4ccc(O)c(C=O)c4oc3=O)s2)CC1 [Example 107] | –
16 | > 5.00 | > 7.00 | Cc1nc(-c2cc3ccc(O)c(C=O)c3oc2=O)sc1C(=O)N1CCN(C)CC1 [Example 108] | –
17 | > 5.00 | > 7.00 | Cc1nc(-c2cc3ccc(O)c(C=O)c3oc2=O)sc1C(=O)NCCN1CCOCC1 [Example 109] | –
18 | > 5.00 | > 7.00 | COc1cc2c(C)c(-c3ccc(C(=O)N4CCN(C)CC4)cc3)c(=O)oc2c(C=O)c1O [Example 111] | –
19 | > 5.00 | > 7.00 | Cc1c(/C=C/C(=O)N2CCN(C)CC2)c(=O)oc2c(C=O)c(O)ccc12 [Example 112] | –
20 | > 5.00 | > 7.00 | Cc1c(CC(=O)N2CCOCC2)c(=O)oc2c(C=O)c(O)ccc12 [Example 129] | –
21 | > 5.00 | > 7.00 | COc1cc2c(C)c(-c3ccc(C(=O)N4CCN(C)CC4)s3)c(=O)oc2c(C=O)c1O [Example 141] | –
22 | > 5.00 | > 7.00 | COc1cc2c(C)c(-c3ccc(C(=O)N4CCOCC4)s3)c(=O)oc2c(C=O)c1O [Example 142] | –

More lines, now with the values behind:

Row | SMILES | pEC50 [1, 3] | pIC50 [2] | pEC50 [1]
23 | Cc1c(-c2ccc(C(=O)N(C)C)cc2)c(=O)oc2c(C=O)c(O)ccc12 [Example 17] | > 5.00 | > 7.00 | –
24 | Cc1c(-c2cccc(C(=O)N(C)C)c2)c(=O)oc2c(C=O)c(O)ccc12 [Example 20] | – | > 6.00 | < 5.00
25 | Cc1cc(=O)oc2c(C=O)c(O)c(Cl)cc12 [Example 22] | > 5.00 | > 7.00 | –
26 | CN1CCN(C(=O)c2cnc(N3CCc4c(ccc(O)c4C=O)C3)s2)CC1 [Example 33] | – | > 5.00 | < 5.00
27 | CCc1cc2c(=O)c(-c3nc(C)cs3)coc2c(C=O)c1O [Example 39] | < 5.00 | > 7.00 | –
28 | O=Cc1c(O)ccc2c(=O)c(-c3cnn(-c4ccccc4)c3)coc12 [Example 40] | < 5.00 | > 6.00 | –
29 | O=Cc1c(O)ccc2nc(-c3cccc(C(=O)NCCN4CCOCC4)c3)ccc12 [Example 46] | – | > 7.00 | > 5.00
30 | O=Cc1c(O)ccc2nc(SCC(=O)O)[nH]c12 [Example 63] | < 5.00 | > 7.00 | –
31 | O=Cc1c(O)ccc2nc(-c3cccc(C(=O)O)c3)[nH]c12 [Example 64] | < 5.00 | > 7.00 | –
32 | COC(=O)c1cccc(-c2nc3ccc(O)c(C=O)c3[nH]2)c1 [Example 65] | – | > 7.00 | > 5.00
33 | Cc1c(-c2ccc(C(=O)N3CCOCC3)cc2)c(=O)oc2c(C=O)c(O)c(Cl)cc12 [Example 67] | < 5.00 | > 6.00 | –
34 | CCOC(=O)c1sc(-c2cc3ccc(O)c(C=O)c3oc2=O)nc1C [Example 68] | > 5.00 | > 7.00 | –
35 | Cc1c(CC(=O)O)c(=O)oc2c(C=O)c(O)ccc12 [Example 70] | – | > 7.00 | < 5.00
36 | Cc1nc(-c2c(C)c3ccc(O)c(C=O)c3oc2=O)sc1C(=O)N1CCN(C)CC1 [Example 110] | – | > 6.00 | > 5.00
37 | COc1cc2c(C)c(-c3ccc(N4CCN(C)CC4)nc3)c(=O)oc2c(C=O)c1O [Example 113] | – | > 7.00 | > 5.00
38 | COc1cc2c(C)c(-c3ccc(N4CCOCC4)nc3)c(=O)oc2c(C=O)c1O [Example 114] | > 5.00 | > 6.00 | –
39 | COc1cc2c(C)c(-c3ccc(N(C)C)nc3)c(=O)oc2c(C=O)c1O [Example 115] | > 5.00 | > 6.00 | –

Row | SMILES | pEC50 [1, 3] | pIC50 [2] | pEC50 [1]
40 | [2H]C(=O)c1c(O)ccc2c(C)c(-c3ccc(C(=O)NCCN4CCOCC4)cc3)c(=O)oc12 [Example 116] | > 5.00 | > 7.00 | –
41 | CCc1cc2c(C)c(-c3ccc(C(=O)NCCN4CCOCC4)cc3)c(=O)oc2c(C=O)c1O [Example 117] | – | > 6.00 | > 5.00
42 | CCc1cc2c(C)c(-c3ccc(C(=O)NCCOC)cc3)c(=O)oc2c(C=O)c1O [Example 118] | > 5.00 | > 7.00 | –
43 | CCc1cc2c(C)c(-c3ccc(C(=O)N4CCOCC4)cc3)c(=O)oc2c(C=O)c1O [Example 119] | – | > 6.00 | < 5.00
44 | COc1cc(O)c(C=O)c2oc(=O)cc(C)c12 [Example 120] | – | > 6.00 | > 5.00
45 | COCCOc1cc(O)c(C=O)c2oc(=O)cc(C)c12 [Example 121] | – | > 7.00 | > 5.00
46 | COCCOCCc1c(C)c2cc(OC)c(O)c(C=O)c2oc1=O [Example 127] | > 5.00 | > 7.00 | –
47 | Cc1c(CC(=O)N2CCN(C)CC2)c(=O)oc2c(C=O)c(O)ccc12 [Example 130] | – | > 7.00 | > 5.00
48 | CCOC(=O)Cc1c(C)c2cc(OC)c(O)c(C=O)c2oc1=O [Example 131] | – | > 7.00 | > 5.00
49 | COc1cc2c(CN3CCOCC3)c(C)c(=O)oc2c(C=O)c1O [Example 132] | > 5.00 | > 7.00 | –
50 | COc1cc2c(CN(C)C)c(C)c(=O)oc2c(C=O)c1O [Example 133] | > 5.00 | > 7.00 | –
51 | COCc1cc(=O)oc2c(C=O)c(O)c(OC)cc12 [Example 136] | > 5.00 | > 6.00 | –
52 | COCc1c(C)c(=O)oc2c(C=O)c(O)ccc12 [Example 137] | > 5.00 | > 7.00 | –
53 | COCCNC(=O)CCc1c(COC)c2cc(OC)c(O)c(C=O)c2oc1=O [Example 138] | < 5.00 | > 6.00 | –
54 | COCc1c(CCC(=O)N2CCOCC2)c(=O)oc2c(C=O)c(O)c(OC)cc12 [Example 139] | > 5.00 | > 7.00 | –
55 | COCc1c(CCC(=O)NCCN2CCOCC2)c(=O)oc2c(C=O)c(O)c(OC)cc12 [Example 140] | < 5.00 | > 6.00 | –
56 | COc1cc2c(C)c(-c3ccc(C(=O)NCCN4CCOCC4)s3)c(=O)oc2c(C=O)c1O [Example 143] | > 5.00 | > 6.00 | –
